Assays:
Type in all cases: cell-based
X4-tropic HIV-1-LAI = experiment: Antiviral assay in PHA-P-activated PBMC, RT activity in supernatant at day 7 (Example 3); conditions: mean of triplicate; for ED70 VIH-1-LAI(X4) Average: effective dose to inhibit 70% of HIV-1 replication; for ED90 VIH-1-LAI(X4) Average: effective dose to inhibit 90% of HIV-1 replication
Description: The antiviral experiment have been performed as described in WO/2009/098147 and Nature Chemical Biology, 2009, 5(10), 743-748.
(§1) Briefly, the X4-tropic HIV-1-LAI (Barre-Sinoussi, Science 220, 868-71, 1983) or the R5-tropic HIV-1/Ba-L (Gartner et al, Science 233, 215-9, 1986) strains were amplified and titrated in vitro on Phytohemaglutinin-P (PHA-P)-activated peripheral blood mononuclear cells (PBMC). Tissue culture infectious doses were calculated using Kärber's formula (Kärber, Arch. Exp. Path. Pharmak. 162, 480-483, 1931). For the antiviral assay, PHA-P-activated PBMC were pre-treated for 30 minutes with six concentrations of each drug (1:5 dilutions between 0.5 μM and 160 pM) and infected with one hundred 50% tissue culture infectious doses (TCID50) of either the X4-tropic LAI or R5-tropic Ba-L strain. Drugs were maintained throughout the culture, and cell supernatants were collected at day 7 post-infection and stored at −20° C. Azidothymidine (AZT) was used in these experiments as an internal control. Viral replication was measured by quantifying reverse transcriptase (RT) activity in cell culture supernatants using the RetroSys HIV RT kit (Innovagen). In parallel, cytotoxicity of the samples was evaluated in uninfected PHA-P-activated PBMC by a methyltetrazolium salt (MTT) assay on day 7. Experiments were performed in triplicate and 50, 70 and 90% effective doses and cytotoxic doses were calculated using SoftMaxPro software.
PHA-P-activated PBMC were treated with each of the drug under investigation (1:5 dilutions between 0.5 μM and […]) and infected with 100 TCID50 of either HIV-1-LAI (X4 tropic) or /Ba-L (R5 tropic) strain. Molecules and viruses were maintained throughout the culture, and cell supernatants were collected at day 7 post-infection from which reverse transcriptase activity was quantified. Experiments were performed in triplicate and 50, 70 and 90% effective doses (ED), in nM (±S.D.) were calculated using SoftMaxPro software.

R5-tropic HIV-1/Ba-L = experiment: as above; conditions: mean of triplicate; for ED70 VIH-1/Ba-L(R5) Average: effective dose to inhibit 70% of HIV-1 replication; for ED90 VIH-1/Ba-L(R5) Average: effective dose to inhibit 90% of HIV-1 replication
Description: as §1, with “For the antiviral assay, PHA-P-activated PBMC were pre-treated for 30 minutes with six concentrations of each drug (1:5 dilutions between 0.5 μM and 160 pM) and infected with one hundred 50% tissue culture infectious doses (TCID50) of either the X4-tropic LAI or R5-tropic Ba-L strain.” left out
Molecules and viruses were maintained throughout the culture, and cell supernatants were collected at day 7 post-infection from which reverse transcriptase activity was quantified. Experiments were performed in triplicate and 50, 70 and 90% effective doses (ED), in nM (±S.D.) were calculated using SoftMaxPro software.

clinical HIV-1 isolates = experiment: Antiviral assay on the series of clinical HIV-1 isolates, summary in text (Example 4); conditions: primary strains of Table 5
Excerpt: The antiviral assay was extended to a series of more clinically relevant primary strains, including 92UG029, SF162, 92US723, 96USHIPS4, 92HT599 and 98IN017.
Phytohemagglutinin (PHA)-P-activated PBMCs were infected either with the reference lymphotropic HIV-1/LAI strain (Barre-Sinoussi, et al., 1983) or with the reference macrophage-tropic HIV-1/Ba-L strain (Gartner, et al., 1986). These viruses were amplified in vitro with PHA-P-activated blood mononuclear cells. Viral stocks (including clinical isolates) were titrated using PHA-P-activated PBMCs, and 50% tissue culture infectious doses (TCID50) were calculated using Kärber's formula (Kärber, 1931). Viruses (125 TCID50) were incubated for 30 min with five concentrations (1:5 dilutions between 500 nM and 320 pM) of each of the molecules to be tested and added to 150 000 PBMCs (m.o.i.˜0.001). […] Viral replication was measured by quantifying reverse transcriptase (RT) activity in the cell culture supernatants using the Lenti RT Activity Kit (Cavisi) and AZT was used as reference anti-HIV-1 molecule. In parallel, cytotoxicity was evaluated on day 7 in uninfected PHA-P-activated PBMC using a colorimetric methyl-tetrazolium salt (MTS/PMS) assay (Promega). Experiments were performed in triplicate and 50, 70 and 90% effective doses (ED) were calculated using SoftMaxPro software.

Row | Substance | ED70 VIH-1-LAI(X4) Average (X4-tropic HIV-1-LAI) | ED90 VIH-1-LAI(X4) Average (X4-tropic HIV-1-LAI) | ED70 VIH-1/Ba-L(R5) Average (R5-tropic HIV-1/Ba-L) | ED90 VIH-1/Ba-L(R5) Average (R5-tropic HIV-1/Ba-L) | antiviral activity against clinical isolates (in words) (clinical HIV-1 isolates)
1 | NH2-(CH2)3-CO-S-Asu-D-Asu-S-Asu-D-Asu-F-Asu-F-D-Asu-S [P3Asu] | >500 nM | >500 nM | >500 nM | >500 nM | 
2 | NH2-(CH2)3-CO-S-YSO3-D-YSO3-S-YSO3-D-YSO3-S-YSO3-D-YS03-S (SXDXSXDXSXDXS; non-natural residues) [P3YSO3] |  |  |  |  | only poorly active or inactive
3 | NH2-(CH2)3-CO-S-pF-D-pF-S-pF-D-pF-S-pF-D-pF-S [P3pF] | >500 nM | >500 nM | >500 nM | >500 nM | 

Reference: patent US9078928B2, “Conjugated molecules comprising a peptide derived from the CD4 receptor coupled to a polyanionic polypeptide for the treatment of AIDS” (Institut Pasteur, priority 2011, dated 2015)
